Data as given in ChEMBL document CHEMBL4680265, “Anti-tubulin agent vinorelbine inhibits metastasis of cancer cells by regulating epithelial-mesenchymal transition” (Eur J Med Chem, 2020).
Active and inactive are the calls of the source. No cut-off for these calls is given here.

How the values were obtained:
NCI-H1975 [1] = experiment: Antimigratory activity against human NCI-H1975 cells assessed as reduction in migration at 1 nM measured after 96 hrs by scratch wound healing based inverted microscopic analysis relative to control; format: functional
NCI-H1975 [2] = experiment: Antimigratory activity against human NCI-H1975 cells assessed as reduction in migration at 5 nM measured after 96 hrs by scratch wound healing based inverted microscopic analysis relative to control; format: functional
NCI-H1975 [3] = experiment: Antimigratory activity against human NCI-H1975 cells assessed as reduction in migration at 10 nM measured after 96 hrs by scratch wound healing based inverted microscopic analysis relative to control; format: functional
HepG2 [4] = experiment: Antimigratory activity against human HepG2 cells assessed as reduction in migration at 0.1 nM measured after 96 hrs by scratch wound healing based inverted microscopic analysis relative to control; format: functional
HepG2 [5] = experiment: Antimigratory activity against human HepG2 cells assessed as reduction in migration at 1 nM measured after 96 hrs by scratch wound healing based inverted microscopic analysis relative to control; format: functional
HepG2 [6] = experiment: Antimigratory activity against human HepG2 cells assessed as reduction in migration at 10 nM measured after 96 hrs by scratch wound healing based inverted microscopic analysis relative to control; format: functional
HCT-116 [7] = experiment: Antimigratory activity against human HCT-116 cells assessed as reduction in migration at 1 nM measured after 96 hrs by scratch wound healing based inverted microscopic analysis relative to control; format: functional
HCT-116 [8] = experiment: Antimigratory activity against human HCT-116 cells assessed as reduction in migration at 5 nM measured after 96 hrs by scratch wound healing based inverted microscopic analysis relative to control; format: functional
HCT-116 [9] = experiment: Antimigratory activity against human HCT-116 cells assessed as reduction in migration at 10 nM measured after 96 hrs by scratch wound healing based inverted microscopic analysis relative to control; format: functional
NCI-H1975 [10] = experiment: Antiinvasive activity against human NCI-H1975 cells assessed as reduction in invasion at 1 to 10 nM measured after 48 hrs by DAPI staining based transwell assay; format: functional, cell-based; conditions: dose 1-10 nM
HepG2 [11] = experiment: Antiinvasive activity against human HepG2 cells assessed as reduction in invasion at 0.1 to 10 nM measured after 48 hrs by DAPI staining based transwell assay; format: functional, cell-based; conditions: dose 0.1-10 nM
HCT-116 [12] = experiment: Antiinvasive activity against human HCT-116 cells assessed as reduction in invasion at 1 to 10 nM measured after 48 hrs by DAPI staining based transwell assay; format: functional, cell-based; conditions: dose 1-10 nM
NCI-H1975 [13] = experiment: Inhibition of epithelial-mesenchymal transition in human NCI-H1975 cells assessed as increase in E-cadherin expression at 1 to 100 nM by Western blot analysis; format: functional, cell-based; conditions: dose 1-100 nM
NCI-H1975 [14] = experiment: Inhibition of epithelial-mesenchymal transition in human NCI-H1975 cells assessed as increase in Vimentin expression at 1 to 100 nM by Western blot analysis; format: functional, cell-based; conditions: dose 1-100 nM
NCI-H1975 [15] = experiment: Inhibition of epithelial-mesenchymal transition in human NCI-H1975 cells assessed as decrease in N-cadherin expression at 1 to 100 nM by Western blot analysis; format: functional, cell-based; conditions: dose 1-100 nM
HepG2 [16] = experiment: Inhibition of epithelial-mesenchymal transition in human HepG2 cells assessed as […] in E-cadherin expression at 0.1 to 10 uM by Western blot analysis; format: functional, cell-based; conditions: dose 0.1-10 µM
HepG2 [17] = experiment: Inhibition of epithelial-mesenchymal transition in human HepG2 cells assessed as decrease in Vimentin expression at 0.1 to 10 uM by Western blot analysis; format: functional, cell-based; conditions: dose 0.1-10 µM
HepG2 [18] = experiment: Inhibition of epithelial-mesenchymal transition in human HepG2 cells assessed as decrease in N-cadherin expression at 0.1 to 10 uM by Western blot analysis; format: functional, cell-based; conditions: dose 0.1-10 µM
HCT-116 [19] = experiment: Inhibition of epithelial-mesenchymal transition in human HCT-116 cells assessed as increase in E-cadherin expression at 0.01 to 1 uM by Western blot analysis; format: functional, cell-based; conditions: dose 0.01-1 µM
HCT-116 [20] = experiment: Inhibition of epithelial-mesenchymal transition in human HCT-116 cells assessed as decrease in Vimentin expression at 0.01 to 1 uM by Western blot analysis; format: functional, cell-based; conditions: dose 0.01-1 µM
HCT-116 [21] = experiment: Inhibition of epithelial-mesenchymal transition in human HCT-116 cells assessed as decrease in N-cadherin expression at 0.01 to 1 uM by Western blot analysis; format: functional, cell-based; conditions: dose 0.01-1 µM
NCI-H1975 [22] = experiment: Inhibition of epithelial-mesenchymal transition in human NCI-H1975 cells assessed as downregulation of MMP-2 by Western blot analysis; format: functional, cell-based; conditions: dose 1-100 nM
NCI-H1975 [23] = experiment: Inhibition of epithelial-mesenchymal transition in human NCI-H1975 cells assessed as downregulation of MMP-9 by Western blot analysis; format: functional, cell-based; conditions: dose 1-100 nM
NCI-H1975 [24] = experiment: Inhibition of epithelial-mesenchymal transition in human NCI-H1975 cells assessed as downregulation of Snail-1 by Western blot analysis; format: functional, cell-based; conditions: dose 1-100 nM
HepG2 [25] = experiment: Inhibition of epithelial-mesenchymal transition in human HepG2 cells assessed as downregulation of MMP-2 by Western blot analysis; format: functional, cell-based; conditions: dose 0.1-10 µM
HepG2 [26] = experiment: Inhibition of epithelial-mesenchymal transition in human HepG2 cells assessed as downregulation of MMP-9 by Western blot analysis; format: functional, cell-based; conditions: dose 0.1-10 µM
HepG2 [27] = experiment: Inhibition of epithelial-mesenchymal transition in human HepG2 cells assessed as downregulation of Snail-1 by Western blot analysis; format: functional, cell-based; conditions: dose 0.1-10 µM
HCT-116 [28] = experiment: Inhibition of epithelial-mesenchymal transition in human HCT-116 cells assessed as downregulation of MMP-2 by Western blot analysis; format: functional, cell-based; conditions: dose 0.01-1 µM
HCT-116 [29] = experiment: Inhibition of epithelial-mesenchymal transition in human HCT-116 cells assessed as downregulation of MMP-9 by Western blot analysis; format: functional, cell-based; conditions: dose 0.01-1 µM
HCT-116 [30] = experiment: Inhibition of epithelial-mesenchymal transition in human HCT-116 cells assessed as downregulation of Snail-1 by Western blot analysis; format: functional, cell-based; conditions: dose 0.01-1 µM

For `CCC1=C[C@@H]2CN(C1)Cc1c([nH]c3ccccc13)[C@@](C(=O)OC)(c1cc3c(cc1OC)N(C)[C@H]1[C@@](O)(C(=O)OC)[C@H](OC(C)=O)[C@]4(CC)C=CCN5CC[C@]31[C@@H]54)C2` [VINORELBINE], the inhibition at 0.001 µM (NCI-H1975 [1]) was 0.7%, the inhibition at 0.005 µM (NCI-H1975 [2]) was 52.6% and the inhibition at 0.01 µM (NCI-H1975 [3]) was 70.5%. The inhibition at 0.0001 µM (HepG2 [4]) was 11.7%, the inhibition at 0.001 µM (HepG2 [5]) was 33.1% and the inhibition at 0.01 µM (HepG2 [6]) was 47.4%. It also gave an inhibition at 0.001 µM (HCT-116 [7]) of 13%, an inhibition at 0.005 µM (HCT-116 [8]) of 28.5% and an inhibition at 0.01 µM (HCT-116 [9]) of 50.9%. For the same compound, the inhibition (NCI-H1975 [10]) was “Active”, the inhibition (HepG2 [11]) was “Active” and the inhibition (HCT-116 [12]) was “Active”. For the same compound, the inhibition (NCI-H1975 [13]) was “Active”, the inhibition (NCI-H1975 [14]) was “Active” and the inhibition (NCI-H1975 [15]) was “Active”. For the same compound, the inhibition (HepG2 [16]) was “inactive”, the inhibition (HepG2 [17]) was “inactive” and the inhibition (HepG2 [18]) was “Active”. For the same compound, the inhibition (HCT-116 [19]) was “Active”, the inhibition (HCT-116 [20]) was “inactive” and the inhibition (HCT-116 [21]) was “Active”. The inhibition (NCI-H1975 [22]) was “Dose-dependent effect”, the inhibition (NCI-H1975 [23]) was “Dose-dependent effect” and the inhibition (NCI-H1975 [24]) was “Dose-dependent effect”. The inhibition (HepG2 [25]) was “Dose-dependent effect”, the inhibition (HepG2 [26]) was “Dose-dependent effect” and the inhibition (HepG2 [27]) was “Dose-dependent effect”. For the same compound, the inhibition (HCT-116 [28]) was “Dose-dependent effect”, the inhibition (HCT-116 [29]) was “Dose-dependent effect” and the inhibition (HCT-116 [30]) was “Dose-dependent effect”.
